The record followed here is PubChem BioAssay (NCI).

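Assay format: 96-well plates, 48-hour exposure. The concentration for 50% growth inhibition is given as GI50. The concentration for full growth arrest is given as TGI.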 Bounds are passed on as bounds.

Some test systems named below: A549 NSCLC; HOP-62 NSCLC; KM12 colon; M14 melanoma; MALME-3M melanoma; OVCAR-3 ovarian; OVCAR-8 ovarian; SNB-75 CNS; SR leukemia; TK-10 renal.
What all share (experiment): growth of human tumour cells (NCI), 48 h

With `CCn1c(O)c(/C=N/NC(=O)C(C)c2ccc(CC(C)C)cc2)sc1=S` (stereo not given), the GI50 was 0.472 µM in the assay with A549 NSCLC; 0.549 µM in the assay on HOP-62 NSCLC; 0.371 µM with KM12 colon; 0.285 µM in the assay on M14 melanoma; 0.331 µM in the assay on MALME-3M melanoma; 0.272 µM with OVCAR-3 ovarian. The GI50 was 0.493 µM in the assay with OVCAR-8 ovarian, 0.241 µM in the assay with SNB-75 CNS, 0.198 µM in the assay with SR leukemia and 2.28 µM in the assay on TK-10 renal. In addition, the TGI in the assay on A549 NSCLC is over 54.4 µM; in the assay with HOP-62 NSCLC it was over 50.7 µM; with KM12 colon, over 32.8 µM; in the assay on M14 melanoma it was 14.5 µM; in the assay with MALME-3M melanoma, over 43 µM; with OVCAR-3 ovarian it was 3.97 µM. Further, the TGI in the assay on OVCAR-8 ovarian is over 100 µM; with SNB-75 CNS, 0.757 µM; in the assay on SR leukemia, over 100 µM; in the assay on TK-10 renal, over 50.7 µM.

Turning to `Cc1nnc(Nc2ccc(NC(=O)Nc3ccc(Cl)cc3)cc2)c2ccccc12`, the GI50 in the assay with A549 NSCLC is 3.24 µM; in the assay on HOP-62 NSCLC, 1.81 µM; in the assay on KM12 colon, 1.99 µM; in the assay on M14 melanoma, 1.76 µM; in the assay with MALME-3M melanoma, 2.17 µM; with OVCAR-3 ovarian, 1.87 µM. In addition, the GI50 with OVCAR-8 ovarian is 3.35 µM; with SNB-75 CNS, 1.91 µM; with SR leukemia, 2.56 µM; in the assay with TK-10 renal, 3.19 µM. In addition, the TGI in the assay with A549 NSCLC was found to be 8.59 µM; with HOP-62 NSCLC, 3.7 µM; in the assay with KM12 colon it was 4.53 µM; in the assay with M14 melanoma, 3.57 µM; with MALME-3M melanoma it was 4.79 µM; in the assay on OVCAR-3 ovarian, 3.99 µM. Further, the TGI is 9.32 µM in the assay with OVCAR-8 ovarian, 5.49 µM in the assay with SNB-75 CNS, 9.55 µM with SR leukemia and 9.42 µM in the assay on TK-10 renal.

As to `COc1ccc(-c2ccc(=O)oc2C#Cc2cc(OC)c(OC)c(OC)c2)cc1O`, the GI50 is 0.563 µM in the assay on A549 NSCLC; 1.65 µM in the assay with HOP-62 NSCLC; 0.759 µM with KM12 colon; 0.521 µM in the assay with M14 melanoma; 2.66 µM in the assay on MALME-3M melanoma; 0.113 µM in the assay with OVCAR-3 ovarian. In addition, the GI50 was 0.775 µM in the assay with OVCAR-8 ovarian, 0.167 µM in the assay on SNB-75 CNS, 0.0708 µM in the assay on SR leukemia and 6.88 µM in the assay with TK-10 renal. For the same compound, the TGI in the assay on A549 NSCLC was 21.9 µM; in the assay with HOP-62 NSCLC it was over 100 µM; in the assay with KM12 colon, over 100 µM; with M14 melanoma it was over 100 µM; in the assay with MALME-3M melanoma it was over 92.6 µM; with OVCAR-3 ovarian, 0.612 µM. Moreover, the TGI in the assay with OVCAR-8 ovarian is over 100 µM; with SNB-75 CNS it was 2.92 µM; in the assay with SR leukemia, over 100 µM; in the assay with TK-10 renal, over 100 µM.

Take `CN1C(=O)c2ccccc2NC(=O)C12O[C@@H]2c1ccccc1` (stereo not given in full): the TGI with A549 NSCLC, in the assay on HOP-62 NSCLC, in the assay with KM12 colon, with M14 melanoma, in the assay with MALME-3M melanoma and with OVCAR-3 ovarian was over 100 µM throughout. Also, the TGI in the assay on OVCAR-8 ovarian, in the assay with SNB-75 CNS, in the assay on SR leukemia and in the assay with TK-10 renal was over 100 µM each time.

In the case of `CC(NCCC(c1ccccc1)c1ccccc1)c1ccccc1` (stereo not given), the GI50 in the assay on A549 NSCLC is 3.33 µM; in the assay with HOP-62 NSCLC it was 1.36 µM; in the assay on KM12 colon it was 2.06 µM; in the assay with M14 melanoma, 1.73 µM; in the assay on MALME-3M melanoma, 1.75 µM; with OVCAR-3 ovarian, 3.21 µM. Further, the GI50 with OVCAR-8 ovarian was 1.7 µM; in the assay on SNB-75 CNS, 2.79 µM; in the assay on SR leukemia it was 1.92 µM; in the assay on TK-10 renal, 1.93 µM. For the same compound, the TGI in the assay on A549 NSCLC amounted to 12.8 µM; with HOP-62 NSCLC, 3.31 µM; in the assay with KM12 colon, 4.85 µM; in the assay with M14 melanoma, 3.31 µM; in the assay on MALME-3M melanoma, 3.44 µM; in the assay with OVCAR-3 ovarian, 10.7 µM. For the same compound, the TGI amounted to 3.37 µM in the assay with OVCAR-8 ovarian, 10.9 µM with SNB-75 CNS, 5.26 µM with SR leukemia and 4 µM in the assay on TK-10 renal.

Regarding `COc1ccc2nc3ccccc3c(NCc3ccc(F)cc3)c2c1`, the GI50 is 1.99 µM with A549 NSCLC; 2.34 µM with HOP-62 NSCLC; 2.42 µM in the assay with KM12 colon; 2.23 µM in the assay with M14 melanoma; 1.46 µM in the assay with MALME-3M melanoma; 2.25 µM with OVCAR-3 ovarian. Besides, the GI50 in the assay with OVCAR-8 ovarian is 2 µM; in the assay with SNB-75 CNS, 2.46 µM; in the assay on SR leukemia it was 1.79 µM; in the assay with TK-10 renal, 2.89 µM. For the same compound, the TGI in the assay with A549 NSCLC was found to be 9.89 µM; in the assay with HOP-62 NSCLC it was 10.9 µM; in the assay on KM12 colon, 8.88 µM; with M14 melanoma it was 8.18 µM; in the assay with MALME-3M melanoma, 5.38 µM; in the assay on OVCAR-3 ovarian, 7.81 µM. The TGI stood at 13.6 µM with OVCAR-8 ovarian, 9.2 µM with SNB-75 CNS, 5.75 µM in the assay on SR leukemia and 10.3 µM in the assay on TK-10 renal.

Consider `O=C1N=C2Sc3ccc4ccccc4c3N2C1=O`, for which the TGI was 41.2 µM with A549 NSCLC; 39.8 µM with HOP-62 NSCLC; over 100 µM in the assay on KM12 colon; 73.8 µM in the assay on M14 melanoma; 47.9 µM in the assay on MALME-3M melanoma; 37.1 µM with OVCAR-3 ovarian. Further, the TGI is 34 µM in the assay on OVCAR-8 ovarian, 40.7 µM with SNB-75 CNS, over 100 µM with SR leukemia and 81.6 µM with TK-10 renal.

For the compound `O=C(Nc1ccc(Br)cc1F)c1cc(Cl)ccc1O`, the GI50 was 2.78 µM in the assay on A549 NSCLC; 1.64 µM with HOP-62 NSCLC; 2.14 µM in the assay on KM12 colon; 0.585 µM with M14 melanoma; 0.434 µM with MALME-3M melanoma; 0.476 µM in the assay with OVCAR-3 ovarian. Also, the GI50 is 1.06 µM with OVCAR-8 ovarian, 0.202 µM in the assay with SNB-75 CNS, 0.541 µM in the assay on SR leukemia and 3.5 µM with TK-10 renal. In addition, the TGI was over 100 µM in the assay with A549 NSCLC; 5.22 µM in the assay on HOP-62 NSCLC; 5.43 µM in the assay with KM12 colon; 3.58 µM with M14 melanoma; 2.67 µM in the assay with MALME-3M melanoma; over 26.6 µM in the assay with OVCAR-3 ovarian. Also, the TGI with OVCAR-8 ovarian is 12.8 µM; with SNB-75 CNS it was 2.4 µM; in the assay with SR leukemia it was over 30.1 µM; in the assay on TK-10 renal, 10.2 µM.

Regarding `CCOc1ccc(/C=C2\N=C(c3ccc([N+](=O)[O-])cc3)OC2=O)cc1`, the TGI in the assay with A549 NSCLC, with HOP-62 NSCLC, in the assay on KM12 colon, with M14 melanoma, in the assay with MALME-3M melanoma and with OVCAR-3 ovarian was over 100 µM in each case. The TGI in the assay with OVCAR-8 ovarian, with SNB-75 CNS, with SR leukemia and in the assay on TK-10 renal was over 100 µM in each case.
